Laboratory results from patent publication US12060349B2, “Glucosylceramide synthase inhibitors” (Genzyme Corporation, priority 2012, dated 2024).

How the values were obtained:
[1] = biological target: T1, glucosylceramide synthase (Homo sapiens, UniProt Q16739); assay: microsomal assay measuring conversion of ceramide to glucosylceramide by HPLC (GCS IC50); assay type: biochemical; details: concentration causing 50% inhibition of glucosylceramide synthase activity
T1 construct: Microsomes were isolated from A375 human melanoma cells; endogenous in cells; host or cells: A375 human melanoma cells (microsomal fraction, 100,000 g pellet)
T1 sequence (Q16739 1-394): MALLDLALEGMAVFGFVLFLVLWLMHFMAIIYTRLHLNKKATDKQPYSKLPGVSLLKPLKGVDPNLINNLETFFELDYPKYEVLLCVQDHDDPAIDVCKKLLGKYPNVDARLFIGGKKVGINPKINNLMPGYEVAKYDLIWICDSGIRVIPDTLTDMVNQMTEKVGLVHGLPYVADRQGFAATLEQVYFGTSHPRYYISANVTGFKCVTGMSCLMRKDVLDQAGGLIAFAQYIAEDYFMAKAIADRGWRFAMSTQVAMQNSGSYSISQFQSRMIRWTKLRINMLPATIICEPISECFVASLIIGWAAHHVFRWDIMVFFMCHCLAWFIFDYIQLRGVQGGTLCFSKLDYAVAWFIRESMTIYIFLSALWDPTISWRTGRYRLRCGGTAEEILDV
Method in brief: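 IC50 is the compound concentration halving glucosylceramide synthase activity. Activity was measured in microsomes, with HPLC quantifying glucosylceramide formed from ceramide.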

[2] = system: GM3 expression on the cell surface, C32 human melanoma cells; assay: cell based phenotypic assay, cell surface GM3 by antibody mediated immunofluorescence, C32 (GM3 C32 IC50); details: Homo sapiens, C32 human melanoma cells; 50% inhibition of GM3 expression on the cell surface; read-out: GM3 C32 IC50
Method in brief: (§1)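 Two melanoma lines, mouse B16 and human C32, were treated and surface GM3 quantified by antibody immunofluorescence for IC50. A parallel viability readout gives the concentration killing 50% of cells, with values over 10 indicating no cell death.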

[3] = system: GM3 expression on the cell surface, B16 mouse melanoma cells; assay: cell based phenotypic assay, cell surface GM3 by antibody mediated immunofluorescence, B16 (GM3 B16 IC50); details: Mus musculus, B16 mouse melanoma cells; 50% inhibition of GM3 expression on the cell surface; read-out: GM3 B16 IC50
Method in brief: as §1

B16 mouse melanoma cells = assay: cell viability in the B16 cell-based assay (Viability, B16 IC50); details: Mus musculus, B16, B16 cells; concentration causing 50% cell death; values greater than 10 represent a lack of cell death; read-out: Viability, B16 IC50
Method in brief: (§2)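 Cell death was scored within the cell-based GM3 experiment for each line. The viability value is the concentration producing 50% death, and numbers exceeding 10 signify no cytotoxicity.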

C32 human melanoma cells = assay: cell viability in the C32 cell-based assay (Viability, C32 IC50); details: Homo sapiens, C32, C32 cells; concentration causing 50% cell death; values greater than 10 represent a lack of cell death; read-out: Viability, C32 IC50
Method in brief: as §2

| Structure (SMILES) | IC50 [1] [nM] | IC50 [2] [nM] | IC50 [3] [nM] | IC50 (B16 mouse melanoma cells) [nM] | IC50 (C32 human melanoma cells) [nM] |
| --- | --- | --- | --- | --- | --- |
| COCC1CN(C(=O)NC2(C)CCN3CCC2CC3)CCN1c1nccc(-c2ccccc2)n1 (stereo not drawn) [Example 144, 3-(Methoxymethyl)-N-(4-methyl-1-azabicyclo[3.2.2]nonan-4-yl)-4-(4-phenylpyrimidin-2-yl)piperazine-1-carboxamide] | 67.3 | 6.33 | 529 | ≥ 10000 | 1000 |
| COCc1ccc(-c2ccnc(N3CCN(C(=O)NC4(C)CCN5CCC4CC5)CC3C(F)F)n2)cc1 (stereo not drawn) [Example 150, 3-(Difluoromethyl)-4-(4-(4-(methoxymethyl)phenyl)pyrimidin-2-yl)-N-(4-methyl-1-azabicyclo[3.2.2]nonan-4-yl)piperazine-1-carboxamide] | 23 | 1.06 | 195 | 5440 | 1000 |
| COCc1ccc(-c2ncnc(N3CCN(C(=O)NC4(C)CCN5CCC4CC5)CC3C(C)C)n2)cc1 (stereo not drawn) [Example 151, 3-Isopropyl-4-(4-(4-(methoxymethyl)phenyl)-1,3,5-triazin-2-yl)-N-(4-methyl-1-azabicyclo[3.2.2]nonan-4-yl)piperazine-1-carboxamide] | 324 | 95.6 | 1820 | 9840 | 1000 |
| C#CC1CN(C(=O)NC2(C)CCN3CCC2CC3)CCN1c1nccc(-c2ccc(COC)cc2)n1 (stereo not drawn) [Example 153, 3-Ethynyl-4-(4-(4-(methoxymethyl)phenyl)pyrimidin-2-yl)-N-(4-methyl-1-azabicyclo[3.2.2]nonan-4-yl)piperazine-1-carboxamide] | 53.4 | 11.7 | 2640 | ≥ 10000 | 1000 |
| CC1CN(C(=O)OC2CCN3CCC2CC3)CCN1c1nccc(-c2ccccc2)n1 (stereo not drawn) [Example 154, 1-Azabicyclo[3.2.2]nonan-4-yl 3-methyl-4-(4-phenylpyrimidin-2-yl)piperazine-1-carboxylate] | 57 | 16.5 | 1930 | 2840 | 1000 |

Stronger by IC50 [1], values ahead:

| IC50 [1] [nM] | IC50 [2] [nM] | IC50 [3] [nM] | Structure (SMILES) | IC50 (B16 mouse melanoma cells) [nM] | IC50 (C32 human melanoma cells) [nM] |
| --- | --- | --- | --- | --- | --- |
| 8.01 | 0.507 | 76.3 | CC1CN(C(=O)NC2(C)CCN3CCC2CC3)CCN1c1nccc(-c2ccc(F)cc2)n1 (stereo not drawn) [Example 145, 4-(4-(4-Fluorophenyl)pyrimidin-2-yl)-3-methyl-N-(4-methyl-1-azabicyclo[3.2.2]nonan-4-yl)piperazine-1-carboxamide] | 6980 | 316 |
| 17.4 | 8.59 | 390 | COCc1ccc(-c2nc(N3CCN(C(=O)NC4(C)CCN5CCC4CC5)CC3C(C)C)ncc2F)cc1 (stereo not drawn) [Example 148, 4-(5-Fluoro-4-(4-(methoxymethyl)phenyl)pyrimidin-2-yl)-3-isopropyl-N-(4-methyl-1-azabicyclo[3.2.2]nonan-4-yl)piperazine-1-carboxamide] | 3460 | 1000 |
| 10.9 | 1.5 | 279 | COCc1ccc(-c2ccnc(N3CCN(C(=O)NC4(C)CCN5CCC4CC5)CC3C(F)(F)F)n2)cc1 (stereo not drawn) [Example 149, 4-(4-(4-(Methoxymethyl)phenyl)pyrimidin-2-yl)-N-(4-methyl-1-azabicyclo[3.2.2]nonan-4-yl)-3-(trifluoromethyl)piperazine-1-carboxamide] | 4310 | 1000 |
| 2.88 | 0.439 | 76.3 | C[C@@H]1CN(C(=O)NC2(C)CCN3CCC2CC3)CCN1c1ncc(Oc2ccc(F)cc2)cn1 (stereo partly drawn) [Example 152, (3R)-4-(5-(4-Fluorophenoxy)pyrimidin-2-yl)-3-methyl-N-(4-methyl-1-azabicyclo[3.2.2]nonan-4-yl)piperazine-1-carboxamide] | 6770 | 316 |
